The text below walks through data of US20200190073A1, “SUBSTITUTED SUCCINIMIDE DERIVATIVES AS PESTICIDES” (BASF SE, priority 2017, published 2020).

Common to all, as to assay type: in vivo
The subject of assay [1] is Green Peach Aphid (Myzus persicae). Nature of the assay: B.2 Green peach aphid, artificial diet, systemic. The following applies: 72 h, read-out: mortality in comparison with untreated controls. In short, it runs like this: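 Adult aphids (5-8 per well) fed through a membrane on artificial diet containing compound formulated in 75% water/25% DMSO, with two replications per concentration. Incubation lasted 3 days at about 23±1° C and 50±5% relative humidity. Mortality and fecundity were then assessed visually.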

Assay [2] concerns Orchid Thrips (Dichromothrips Corbetti). Nature of the assay: B.7 Orchid thrips, floral immersion. The following applies: read-out: mortality in comparison with untreated controls. In short, it runs like this: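 Orchid flower petals dipped in compound diluted in 1:1 acetone:water plus 0.01% v/v Kinetic HV, dried, then enclosed with about 20 adult lab-colony thrips. Held under continuous light at about 28 °C; percent mortality recorded 72 hours after treatment.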

Assay [3] concerns Vetch Aphid (Megoura viciae). Nature of the assay: B.3 Vetch aphid, broad bean leaf disks. The following applies: foliar, 120 h, read-out: mortality in comparison with untreated controls. An outline of the steps:
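Broad bean leaf disks sprayed with compounds in 25% DMSO/water at various concentrations, two replicates, then air-dried and infested with 5-8 adult Megoura viciae (contact/systemic exposure). After 5 days at about 23±1 °C and 50±5% RH, mortality and fecundity scored visually.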

The test system of assay [4] is Southern Armyworm (Spodoptera eridania), 2nd Instar Larvae. As to the kind of experiment: CE.7 Southern armyworm, 2nd instar larvae, comparative test. Particulars: foliar, 96 h, leaf dip, at 4 days, read-out: % mortality in comparison to untreated controls. The protocol:
(§1) The tables show % mortality in comparison to untreated controls.
CE.7 Southern Armyworm (Spodoptera eridania), 2nd Instar Larvae
The active compounds were formulated in 50:50 acetone:water (vol) and 100 ppm Kinetica™ surfactant.
A pair of first true leaves of Sieva lima bean was dipped into the test solution and allowed to dry. The leaves were then placed in a plastic perforated zip enclosure bag and ten 2nd instar larvae were added. At 4 days, observations were made of mortality and reduced feeding.

Assay [5] deals with Silverleaf Whitefly (Bemisia argentifolii). Nature of the assay: CE.4 Silverleaf whitefly, comparative test. The following applies: 72 h, read-out: % mortality in comparison to untreated controls. On the procedure: as §1
CE.4 Silverleaf Whitefly (Bemisia argentifolii)
The active compounds were formulated in 50:50 acetone:water (vol:vol) and 100 ppm Kinetica™ surfactant.
Selected cotton plants were grown to the cotyledon state (one plant per pot). The cotyledons were dipped into the test solution to provide complete coverage of the foliage and placed in a well-vented area to dry. Each pot with treated seedling was placed in a plastic cup and 10 to 12 whitefly adults (approximately 3-5 day old) were introduced. The insects were collected using an aspirator and a Tygon® tubing connected to a barrier pipette tip. The tip, containing the collected insects, was then gently inserted into the soil containing the treated plant, allowing insects to crawl out of the tip to reach the foliage for feeding. The cups were covered with a reusable screened lid. Test plants were maintained in the holding room at about 25° C. and about 20-40% relative humidity for 3 days avoiding direct exposure to the fluorescent light (24 hour photoperiod) to prevent trapping of heat inside the cup. Mortality was assessed 3 days after treatment of the plants.

The subject of assay [6] is Cowpea Aphid (Aphis Craccivora). As to the kind of experiment: CE.1 Cowpea aphid, comparative test. The following applies: read-out: % mortality in comparison to untreated controls. On the procedure:
as §1
CE.1 Cowpea Aphid (Aphis Craccivora)
Potted cowpea plants colonized with approximately 100-150 aphids of various stages were sprayed after the pest population has been recorded. Population reduction was assessed after 24, 72, and 120 hours.

Assay [7] relates to Orchid Thrips (Dichromothrips Corbetti). Nature of the assay: CE.3 Orchid thrips, comparative test. Particulars: 96 h, 10 ppm, after 4 days, read-out: % mortality in comparison to untreated controls. The protocol: as §1
CE.3 Orchid Thrips (Dichromothrips Corbetti)
Dichromothrips corbetti adults used for bioassay were obtained from a colony maintained continuously under laboratory conditions. For testing purposes, the test compound was diluted to a concentration of 300 ppm (wt compound: vol diluent) in a 1:1 mixture of acetone:water (vol:vol), plus 0.01% vol/vol Kinetic® surfactant.
Thrips potency of each compound was evaluated by using a floral-immersion technique. Plastic petri dishes were used as test arenas. All petals of individual, intact orchid flowers were dipped into treatment solution and allowed to dry. Treated flowers were placed into individual petri dishes along with 10-15 adult thrips. The petri dishes were then covered with lids. All test arenas were held under continuous light and a temperature of about 280C for duration of the assay. After 4 days, the numbers of live thrips were counted on each flower, and along inner walls of each petri dish. The level of thrips mortality was extrapolated from pre-treatment thrips numbers.

Assay [8] relates to Rice Brown Plant Hopper (Nilaparvata lugens). As to the kind of experiment: CE.2 Rice brown plant hopper, comparative test. Particulars: 10 ppm, after 72 hours, read-out: % mortality in comparison to untreated controls. On the procedure:
as §1
CE.2 Rice Brown Plant Hopper (Nilaparvata lugens)
Rice seedlings were cleaned and washed 24 hours before spraying. The active compounds were formulated in 50:50 acetone:water (vol:vol) and 0.1% vol/vol surfactant (EL 620) was added. Potted rice seedlings were sprayed with 5 ml test solution, air dried, placed in cages and inoculated with 10 adults. Treated rice plants were kept at about 28-29° C. and relative humidity of about 50-60%. Percent mortality was recorded after 72 hours.

Like-named read-outs stand apart in the source and are kept apart here.

`CN1C(=O)CC(NC(=O)c2ccc(C3=NOC(c4cc(Cl)c(F)c(Cl)c4)(C(F)(F)F)C3)cc2Cl)C1=O` (stereo not drawn) [Compound I-1-2, 2-Chloro-4-[5-(3,5-dichloro-4-fluoro-phenyl)-5-(trifluoromethyl)-4H-isoxazol-3-yl]-N-(1-methyl-2,5-dioxo-pyrrolidin-3-yl)benzamide]: the mortality at 2500 ppm in assay [1] and in assay [3] was greater than 75% each time. Moreover, the mortality at 300 ppm in assay [2] (Thrips, 72 h) was greater than 75%. Also, the mortality at 3 ppm in assay [4] turned out to be 100%. The mortality at 10 ppm in assay [5] was 88%.
On to `CCN1C(=O)CC(NC(=O)c2ccc(C3=NOC(c4cc(Cl)c(F)c(Cl)c4)(C(F)(F)F)C3)cc2Cl)C1=O` (stereo not drawn) [Compound I-1-3], for which the mortality at 2500 ppm in assay [1] and in assay [3] was greater than 75% throughout. Further, the mortality at 300 ppm in assay [2] (Thrips, 72 h) is greater than 75%. The mortality at 3 ppm in assay [4] came to 100%. Besides, the mortality at 10 ppm in assay [5] was determined as 75%.
On to `CN1C(=O)CC(NC(=O)c2ccc(C3=NOC(c4cc(Cl)c(F)c(Cl)c4)(C(F)(F)F)C3)c3c2CCC3)C1=O` (stereo not drawn) [Compound I-1-10], for which the mortality at 2500 ppm in assay [1] and in assay [3] was greater than 75% in each case. For the same compound, in assay [2] (Thrips, 72 h), the mortality at 300 ppm was greater than 75%. Further, in assay [4], the mortality at 3 ppm amounted to 100%.
As for `CN1C(=O)C[C@@H](NC(=O)c2ccc(C3=NOC(c4cc(Cl)c(F)c(Cl)c4)(C(F)(F)F)C3)cc2Cl)C1=O` (stereo partly drawn) [Compound I-1-13], the mortality at 2500 ppm in assay [1] and in assay [3] was greater than 75% each time. Also, the mortality at 300 ppm in assay [2] (Thrips, 72 h) was greater than 75%. The mortality at 10 ppm in assay [6] came to 90%.
For the compound `CCN1C(=O)C[C@@H](NC(=O)c2ccc(C3=NOC(c4ccc(F)c(Cl)c4)(C(F)(F)F)C3)cc2Cl)C1=O` (stereo partly drawn) [Compound I-1-53], the mortality at 2500 ppm in assay [1] (2500 ppm, adult aphids on treated diet, 3 days) was greater than 75%; in assay [3] (2500 ppm, sprayed leaf disks, 5 days) it was greater than 75%. Besides, in assay [2] (300 ppm, adult thrips, 72 hours after treatment), the mortality at 300 ppm is greater than 75%. The mortality at 10 ppm in assay [7] stood at 100%; in assay [8], 75%; in assay [6] (10 ppm, sprayed cowpea plants), 100%.
